Measurements published in US20220046925A1, “METHOD OF CONTROLLING PESTS BY SEED TREATMENT APPLICATION OF A MESOIONIC COMPOUND OR MIXTURE THEREOF” (BASF SE, priority 2018, published 2022).
Like-named read-outs stand apart in the source and are kept apart here. Marks after values point to notes of the source that are not given here.

What was measured:
Type in all cases: in vivo
[1] = test system: Rhopalosiphum padi (RHOPPA); assay: Barley seed treatment with mixtures against Rhopalosiphum padi (Colby synergy); settings: cotyledon stage, 4 days after infestation
Excerpt: (§1) When the observed combined control effect is greater than the expected combined control effect (E), then the combined effect is synergistic.
(§2) Sub-lethal rates were predetermined by rate rundown. Formulations were combined and diluted in water and applied to barley seeds which were allowed to dry. Seeds were then planted and grown in a greenhouse. At the cotyledon stage, bird cherry-oat aphids (Rhopalosiphum padi) of mixed stages were infested onto each plant and held under laboratory conditions. Replication was 6×. Four days after infestation, the number of live aphids on each plant was recorded, and means were calculated for each treatment. Percent control was calculated as the percent reduction in live aphids relative to the solvent blank (Sun-Shepard method).

Rhopalosiphum padi = assay: Barley seed treatment against bird cherry oat aphid; settings: 100 g ai/100 kg seed, first true leaf stage
Protocol: Barley seed treatment: Technical material was dissolved in DMSO. Twenty barely seeds were treated with a vortex method and planted in a pot (2×2 inch) filled with Rediearth soil. One seed was planted per pot and the pots were arranged in a completely randomized design, held in the greenhouse, and top-watered and fertilized daily. Four seedlings were taken from each cotyledon & true leaf treatment samples. DMSO solvent blank were used as positive and negative treatments, respectively. The true leaf stage was infested 14 days after planting (DAP). Ten bird cherry-oat aphids of mixed stages were transferred individually to each plant with a paint brush. Six replicates were set up for each treatment. After infestation, plants were kept on a light cart at room temperature and bottom watered until evaluated. The number of live aphids at 4 days after infestation (4DAI) was recorded, and means were calculated for each treatment. Percent control was calculated as the percent reduction in live aphids relative to the solvent blank.

[2] = test system: Frankliniella occidentalis (FRANOC); assay: Cotton seed treatment with mixtures against Frankliniella occidentalis (Colby synergy); settings: 7DAI
Excerpt: as §1
as §2, with “cotton” for “barley”, “western flower thrips (Frankliniella occidentalis) adults” for “bird cherry-oat aphids (Rhopalosiphum padi) of mixed stages”, “5×. Seven and 14” for “6×. Four”, “percent damage” for “the number of live aphids on each plant”, “visually assessed,” for “recorded,”

Phyllotreta striolata = assay: Canola seed treatment against striped flea beetle; settings: rate 400 (unit not given), 300 g ai/L formulation, cotyledon stage
Protocol: Canola seed treatment: Formulation was diluted in water to make appropriate concentration according to needs. Canola seeds with pre-coating inert ingredients were treated with diluted solution by vortex methods. Treated seeds were dried in ventilating chemical hood. After dry, three seeds were planted per pot (2×2 inch) at a depth of 1 cm, which were filled with Patio sand and watered prior to treatment and planting. The pots were arranged in a completely randomized design, kept in the greenhouse, and automatically top-watered and fertilized daily (NPK 16-4-20-3(Ca)-1(Mg)). At the cotyledon stage [˜7 days after treatment (DAT)], plants were thinned to 1 plant per pot. One set of plants was infested at the cotyledon stage and another set at the first true-leaf stage. Both cotyledons of a single plant were excised, and true leaves were sampled using a ⅝″ (1.59-cm) diameter leaf disc. Leaf samples were placed on a piece of 47-mm filter paper moistened with 0.225 mL distilled water in a 50-mm Petri dish. Five flea beetles were then infested into the petri dish. The dishes were held in an incubator at 27° C., 60% RH, and a 16L:8D light cycle. Five days after infestation (DAI), the numbers of live, moribund, and dead flea beetles were recorded, as well as % feeding damage (via visual estimate). […] Percent mortality was calculated for each treatment, with moribund insects classified as alive.

Myzus persicae = assay: Sugarbeet seed treatment against green peach aphid
Protocol: Sugarbeet seed treatment: Seeds were treated in according to desired rates. Seeds were planted (one per pot) at a depth of 1.5 cm in 3×3 in (58.0644 cm2) pots that were filled with RediEarth soil and moistened prior to planting. Pots were held in a completely randomized design in the greenhouse and automatically top watered and fertilized [NPK 16-4-20-3(Ca)-1(Mg)] daily (4 min, 4× a day) until infestation. A set of plants was infested 7, 14, 21 and 28 days after treatment (DAT). Thirty aphids were transferred individually to each plant with a paint brush. After infestation, plants were kept on a light cart at room temperature with continuous light and bottom watered until evaluation. Six days after infestation (DAI), the number of live aphids was recorded, and means were calculated for each treatment. Percent control was calculated as the percent reduction in live aphids relative to the solvent blank.

Elasmopalpus sp = assay: Soybean seed treatment against lesser corn stalkborer (cage)
Protocol: Soybean seed treatment: Soybean seeds were treated with Compound I-R-1. The treated seeds were sown inside an enclosed cage, in two lines at 29 seeds/cage. Thirty-five 3rd instar larvae of Elasmopalpus sp were introduced into each cage at six days after sowing. The number of dead and live plants were counted periodically.

Dichelops melacanthus = assay: Corn seed treatment against green belly stink bug (cage); settings: for mortality at 30 g/ha: Dichelops melacanthus
Protocol: Corn seed treatment: Corn seeds were treated with Compound I-R-1. The treated seeds were sown inside an enclosed cage, at 16 seeds/cage. Twenty-four stinkbugs, were introduced into each cage. The number of dead and live stinkbugs were counted periodically.

Frankliniella fusca [3] = assay: Cotton seed treatment against tobacco thrips (field)
Protocol: Cotton seed treatment: Field studies were carried out against tobacco thrips using cotton seeds treated with 0.375 mg ai/seed of Compound I-R-1. Treated Seeds were sown in 30 sq m plots. There were 4 replications for each treatment. Feeding damage was assessed at 5 and 7 days after planting (DAP).

[4] = test system: Leptinotarsa decimlineata; assay: Potato seed piece treatment against Colorado potato beetle
Protocol: 8. Potato—Colorado Potato Beetle (Leptinotarsa decimlineata) Potato seed piece treatment: Seed potatoes were treated by spraying. After application, potatoes were allowed to dry prior to planting. The plots were laid out in 6-meter rows with 4 replications. Feeding damage assessments were taken at 42 and 50 days after planting.

Frankliniella fusca [5] = assay: Peanut seed treatment against tobacco thrips (field)
Protocol: Peanut seed treatment: Field trials were laid out. Treated peanut seeds were sown in 8 sq m plots using 4 replications. Feeding damage was assessed at 28 and 35 days after treatment.

CCN(C(=O)c1cnn(C(C)C(C)C)c1C)c1ccnnc1 (stereo not drawn) [Dimpropyridaz, 1-(1,2-dimethylpropyl)-N-ethyl-5-methyl-N-pyridazin-4-yl-pyrazole-4-carboxamide]
% activity (population reduction), solo application ([1]; 18 g ai/100 kg seeds): 5%
% activity (population reduction), solo application ([1]; 46 g ai/100 kg seeds): 11%

O=C1C=C(N(Cc2ccc(Cl)nc2)CC(F)F)CO1 [Flupyradifurone]
% activity (population reduction), solo application ([1]; 21 g ai/100 kg seeds): 36%

C[n+]1c([O-])c(-c2ccccc2)c(=O)n2c1SC[C@@H]2c1cnc(Cl)s1 (single isomer, unassigned) [Compound I-R-1]
% activity (population reduction), solo application ([1]; 5 g ai/100 kg seeds): 46%
% activity (population reduction), solo application ([1]; 14 g ai/100 kg seeds): 59%
Mean % Population Reduction (18 DAP, 4DAI) (Rhopalosiphum padi): ≥90%
% activity (feeding damage reduction), solo application ([2]; use rate 0.375 (head: g ai/100 kg seeds)): 19%
Mean % feeding damage (5DAI, 13DAP) (Phyllotreta striolata; 5DAI, 13DAP): 19^b %
Mean % Feeding Damage Reduction Relative to SB (Phyllotreta striolata; relative to solvent blank): 58%
Mean % Population Reduction Relative to SB @ 6DAI, 7 DAP (Myzus persicae; sugar beet seed treatment, 80 g ai/1 kg seed, infested 7 DAP, 6DAI): 100%
Mean % Population Reduction Relative to SB @ 6DAI, 14 DAP (Myzus persicae; sugar beet seed treatment, 80 g ai/1 kg seed, infested 14 DAP, 6DAI): ≥90%
Mean % Population Reduction Relative to SB @ 6DAI, 21 DAP (Myzus persicae; sugar beet seed treatment, 80 g ai/1 kg seed, infested 21 DAP, 6DAI): ≥90%
Mean % Population Reduction Relative to SB @ 6DAI, 28 DAP (Myzus persicae; sugar beet seed treatment, 80 g ai/1 kg seed, infested 28 DAP, 6DAI): ≥90%
activity against green peach aphid by sugarbeet seed treatment (in words) (Myzus persicae; sugarbeet seed treatment): excellent activity
activity as far as 4 weeks after plant (in words) (Myzus persicae; sugarbeet seed treatment, 4 weeks after plant): excellent activity
efficacy against Elasmopalpus sp. in terms of plant protection (in words) (Elasmopalpus sp): good efficacy
Number of dead plants/plot, A03 (Elasmopalpus sp; 50 g ai/ha, assessment A03): 1.50 a
Number of dead plants/plot, A07 (Elasmopalpus sp; 50 g ai/ha, assessment A07): 4.50 ab
Number of dead plants/plot, A14 (Elasmopalpus sp; 50 g ai/ha, assessment A14): 5.25 b
Number of dead plants/plot, A21 (Elasmopalpus sp; 50 g ai/ha, assessment A21): 6.75 b
mortality at 30 g/ha (Dichelops melacanthus; read-out: Percentage mortality (%), A01): 5.4%
mortality at 30 g/ha (Dichelops melacanthus; read-out: Percentage mortality (%), A03): 24.6%
mortality at 30 g/ha (Dichelops melacanthus; read-out: Percentage mortality (%), A07): 13%
mortality at 30 g/ha (Dichelops melacanthus; read-out: Percentage mortality (%), A14): 35.3%
mortality at 30 g/ha (Dichelops melacanthus; read-out: Percentage mortality (%), A21): 61.5%
efficacy against green belly stink bug (in words) (Dichelops melacanthus; corn seed treatment): good efficacy
efficacy against F. fusca in terms of reduction in feeding damage (in words) (Frankliniella fusca [3]): excellent efficacy
Feeding damage (%), 5 DAP (Frankliniella fusca [3]; 0.375 mg ai/seed, field, 5 DAP): 6.0 b %
Feeding damage (%), 7 DAP (Frankliniella fusca [3]; 0.375 mg ai/seed, field, 7 DAP): 12.5 c %
efficacy against L. decimlineata regarding reduction in feeding damage (in words) [4]: good efficacy
Feeding damage, A42 ([4]; 400 g ai/ha, 42 days after planting): 3.0 b
Feeding damage, A50 ([4]; 400 g ai/ha, 50 days after planting): 11.3 bc
efficacy against F. fusca in terms of reduction in feeding damage (in words) (Frankliniella fusca [5]): good efficacy
Feeding damage (%), A28 (Frankliniella fusca [5]; 0.68 mg ai/seed, field, 28 days after treatment): 13.0 b %
Feeding damage (%), A35 (Frankliniella fusca [5]; 0.68 mg ai/seed, field, 35 days after treatment): 13.5 b %

CN1COCN(Cc2cnc(Cl)s2)/C1=N\[N+](=O)[O-] [thiamethoxam, reference compound]
% activity (feeding damage reduction), solo application ([2]; use rate 0.300 (head: g ai/100 kg seeds)): 37%
